Measurements reported in the supplement of paper PMC10331698.
± gives the standard deviation of the averaged measurements.

Tests used:
Assay in all cases: level (log10 ratio to DMSO vehicle control); higher = higher biomarker level / cell amount than vehicle control
[1] = compound: C=C(C)C(=O)OCC(F)(F)C(F)(F)C(F)(F)F [2,2,3,3,4,4,4-Heptafluorobutyl methacrylate]; conditions: in DMSO
Description: (§1)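 BioMAP Diversity Plus panel of 12 human primary cell co-culture systems (3C, 4H, LPS, SAg, BT, BF4T, BE3C, CASM3C, HDF3CGF, KF3CT, MyoF, Mphg). Compounds were added 1 h before stimulation and left for 24 h (MyoF 48 h; BT 72 h for soluble read-outs or 6 d for IgG). Biomarkers were read by ELISA, cytotoxicity by SRB, PBMC viability and proliferation by Alamar Blue. Each well value was divided by the mean of 8 DMSO control wells on the same plate and log10 transformed; duplicate blinded samples were tested at 4 concentrations.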

[2] = compound: Cc1ccc(S(=O)(=O)OCC(F)(F)C(F)(F)C(F)(F)C(F)(F)C(F)(F)C(F)F)cc1 [1H,1H,7H-Perfluoroheptyl 4-methylbenzenesulfonate]; conditions: in DMSO
Description: as §1

[3] = compound: FC(F)(F)C(F)(F)C(F)(F)C(F)(F)CCI [1H,1H,2H,2H-Perfluorohexyl iodide]; conditions: in DMSO
Description: as §1

[4] = compound: O=C(Cl)C(F)(F)C(F)(F)C(F)(F)C(=O)Cl [Hexafluoroglutaryl chloride]; conditions: in DMSO
Description: as §1

[5] = compound: O=S(=O)(OCC(F)(F)F)C(F)(F)C(F)(F)C(F)(F)C(F)(F)F [2,2,2-Trifluoroethyl perfluorobutanesulfonate]; conditions: in DMSO
Description: as §1

[6] = compound: OCC(F)(F)C(F)(F)C(F)(F)C(F)(F)C(F)(F)C(F)(F)C(F)(F)C(F)(F)C(F)(F)C(F)(F)C(F)(F)F [11:1 Fluorotelomer alcohol]; conditions: in DMSO
Description: as §1

[7] = compound: OCCCC(F)(F)C(F)(F)C(F)(F)C(F)(F)C(F)(F)C(F)(F)C(F)(F)C(F)(F)F [3-(Perfluorooctyl)propanol]; conditions: 6700 nM; in DMSO
Description: as §1

Test System	level (log10) ([1]; 6700 nM)	level (log10) ([1]; 20000 nM)	level (log10) ([1]; 60000 nM)	level (log10) ([2]; 6700 nM)	level (log10) ([2]; 20000 nM)	level (log10) ([2]; 60000 nM)	level (log10) ([3]; 6700 nM)	level (log10) ([3]; 20000 nM)	level (log10) ([3]; 60000 nM)	level (log10) ([4]; 6700 nM)	level (log10) ([4]; 20000 nM)	level (log10) ([4]; 60000 nM)	level (log10) ([5]; 6700 nM)	level (log10) ([5]; 20000 nM)	level (log10) ([5]; 60000 nM)	level (log10) ([6]; 1100 nM)	level (log10) ([6]; 3300 nM)	level (log10) ([6]; 10000 nM)	level (log10) [7]
lMphg:CD69	-0.0035 ± 0.044	-0.0335 ± 0.025	-0.0615 ± 0.047	-0.007 ± 0.016	-0.048 ± 0.027	-0.039 ± 0.062	-0.019	-0.013 ± 0.013	0.043 ± 0.021	-0.021 ± 0.011	-0.032 ± 0.018	-0.0135 ± 0.029	-0.016 ± 0.033	-0.0355 ± 0.0021	-0.079 ± 0.028	-0.038 ± 0.017	-0.103 ± 0.028	-0.0685 ± 0.0078	0.018 ± 0.04
CASM3C:CD141/Thrombomodulin	0.0205 ± 0.011	0 ± 0.042	0.0115 ± 0.036	-0.002 ± 0.0014	0.032 ± 0.0085	0.067 ± 0.041	-0.0085 ± 0.021	-0.009 ± 0.014	0.0275 ± 0.049	-0.0055 ± 0.037	-0.0135 ± 0.063	-0.0125 ± 0.044	-0.0045 ± 0.0021	0.008 ± 0.037	0.0045 ± 0.0064	-0.0155 ± 0.012	-0.012 ± 0.025	-0.0155 ± 0.005	0.0455 ± 0.019
3C:CD142/Tissue Factor	-0.012 ± 0.021	-0.017 ± 0.0014	0.001 ± 0.0099	0.0065 ± 0.015	-0.0025 ± 0.021	-0.0445 ± 0.036	-0.0125 ± 0.028	0.0155 ± 0.047	0.0725 ± 0.037	-0.04 ± 0.042	-0.0435 ± 0.0092	-0.07 ± 0.092	0.0285 ± 0.046	0.011 ± 0.037	-0.018 ± 0.034	0.028 ± 0.024	0.074 ± 0.034	0.0865 ± 0.0092	-0.054 ± 0.016
lMphg:CXCL8/IL-8	0.037 ± 0.038	0.026 ± 0.021	0.027 ± 0.038	0.022 ± 0.0057	0	0.022 ± 0.057	-0.0325 ± 0.0035	-0.006 ± 0.0085	0.0355 ± 0.018	0.023 ± 0.011	0.027 ± 0.018	0.0625 ± 0.05	0.031	0.025 ± 0.018	0.072 ± 0.068	0.111 ± 0.042	0.127 ± 0.033	0.0445 ± 0.0064	0.0655 ± 0.015
BE3C:MMP-9	0.0155 ± 0.0092	-0.0075 ± 0.016	0.032 ± 0.025	0.012 ± 0.027	-0.0165 ± 0.021	-0.003 ± 0.035	0.0015 ± 0.05	-0.006 ± 0.028	0.029 ± 0.047	-0.0005 ± 0.00071	-0.003 ± 0.018	-0.0325 ± 0.042	-0.0355 ± 0.021	-0.041 ± 0.033	-0.061 ± 0.028	-0.0475 ± 0.029	-0.102 ± 0.0042	-0.0735 ± 0.019	0.036 ± 0.038
3C:CD62E/E-Selectin	-0.005 ± 0.011	-0.014 ± 0.0042	-0.0015 ± 0.013	-0.0085 ± 0.005	-0.03 ± 0.0057	-0.081 ± 0.016	-0.003 ± 0.0042	-0.0225 ± 0.018	0.005 ± 0.014	-0.0315 ± 0.049	-0.02 ± 0.038	-0.0025 ± 0.012	-0.0085 ± 0.013	-0.0385 ± 0.021	-0.0045 ± 0.016	-0.0125 ± 0.013	0.008 ± 0.0028	0.0155 ± 0.0078	-0.024 ± 0.0099
BE3C:PAI-I	-0.0505 ± 0.043	-0.003 ± 0.055	0.017 ± 0.064	-0.0365 ± 0.019	-0.0745 ± 0.016	-0.057 ± 0.0099	-0.0335 ± 0.0064	-0.0305 ± 0.036	-0.051 ± 0.0085	-0.0285 ± 0.053	-0.0715 ± 0.059	-0.0935 ± 0.094	-0.0005 ± 0.011	0.003 ± 0.0085	0.014 ± 0.011	-0.045 ± 0.057	-0.0855 ± 0.054	-0.0555 ± 0.07	-0.008 ± 0.0014
CASM3C:CXCL8/IL-8	0.0035 ± 0.012	-0.0085 ± 0.032	0.012 ± 0.024	-0.0095 ± 0.015	-0.0055 ± 0.013	-0.002 ± 0.0099	0.0105 ± 0.022	0.0145 ± 0.028	0.0255 ± 0.06	0.0095 ± 0.021	0.006 ± 0.016	0.0005 ± 0.052	0.0335 ± 0.0064	0.031 ± 0.048	0.024 ± 0.042	-0.0025 ± 0.0035	-0.006	-0.007 ± 0.064	-0.008 ± 0.0099
